# Active and inactive are the calls of the source.
# Assays:
# [1] = target: Intestinal-type alkaline phosphatase (Mus musculus, UniProt P24822); experiment: PubChem AID 488875; type: functional
# [2] = target: T1, Intestinal-type alkaline phosphatase (Homo sapiens, UniProt P09923); experiment: human intestinal alkaline phosphatase activators, dose response, biochemical, luminescence, uHTS hits (AID 463120); type: functional
# [3] = target: T1, Intestinal-type alkaline phosphatase; experiment: human IAP activators, dose response, biochemical, luminescent, uHTS hits, set 2 (AID 488817); type: functional;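 note: potency of activators that raise enzyme activity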
# [4] = target: T2, Alkaline phosphatase, tissue-nonspecific isozyme (Homo sapiens, UniProt P05186); experiment: TNAP enzyme activators, dose response, selectivity assay for human IAP activator project, biochemical, TNAP isozyme, human IAP uHTS hits (AID 488886); type: functional;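 note: potency of compounds raising TNAP activity as a selectivity check on IAP activators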
# T2 sequence (P05186 whole entry): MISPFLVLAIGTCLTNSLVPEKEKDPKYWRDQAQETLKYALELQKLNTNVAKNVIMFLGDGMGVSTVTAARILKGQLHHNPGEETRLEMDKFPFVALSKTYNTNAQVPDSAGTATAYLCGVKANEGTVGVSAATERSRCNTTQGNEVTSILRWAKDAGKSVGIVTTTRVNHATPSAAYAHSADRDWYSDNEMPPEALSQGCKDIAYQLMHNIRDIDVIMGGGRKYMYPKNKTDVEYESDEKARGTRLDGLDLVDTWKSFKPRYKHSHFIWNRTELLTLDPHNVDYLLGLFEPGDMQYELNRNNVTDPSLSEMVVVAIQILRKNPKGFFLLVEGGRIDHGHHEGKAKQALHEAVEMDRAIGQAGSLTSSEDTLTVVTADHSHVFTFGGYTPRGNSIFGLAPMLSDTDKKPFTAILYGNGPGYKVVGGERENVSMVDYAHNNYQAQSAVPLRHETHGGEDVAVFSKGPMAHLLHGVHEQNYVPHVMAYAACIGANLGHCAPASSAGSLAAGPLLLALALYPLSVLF
# [5] = target: T1, Intestinal-type alkaline phosphatase; experiment: Dose Response confirmation of uHTS hits from a small molecule inhibitors of human intestinal alkaline phosphatase via a luminescent assay. [Related pubchem assays (depositor defined):AID2544, AID2574]; type: functional
# [6] = target: SWI/SNF-related matrix-associated actin-dependent regulator of chromatin subfamily A member 2 (Homo sapiens, UniProt P51531); experiment: Luminescence-based cell-based high throughput dose response assay to identify activators of the function of SWI/SNF related, matrix associated, actin dependent regulator of chromatin, subfamily a, member 2 (SMARCA2, BRM).; type: functional
# Sequence of SWI/SNF-related matrix-associated actin-dependent regulator of chromatin subfamily A member 2 (P51531 whole entry): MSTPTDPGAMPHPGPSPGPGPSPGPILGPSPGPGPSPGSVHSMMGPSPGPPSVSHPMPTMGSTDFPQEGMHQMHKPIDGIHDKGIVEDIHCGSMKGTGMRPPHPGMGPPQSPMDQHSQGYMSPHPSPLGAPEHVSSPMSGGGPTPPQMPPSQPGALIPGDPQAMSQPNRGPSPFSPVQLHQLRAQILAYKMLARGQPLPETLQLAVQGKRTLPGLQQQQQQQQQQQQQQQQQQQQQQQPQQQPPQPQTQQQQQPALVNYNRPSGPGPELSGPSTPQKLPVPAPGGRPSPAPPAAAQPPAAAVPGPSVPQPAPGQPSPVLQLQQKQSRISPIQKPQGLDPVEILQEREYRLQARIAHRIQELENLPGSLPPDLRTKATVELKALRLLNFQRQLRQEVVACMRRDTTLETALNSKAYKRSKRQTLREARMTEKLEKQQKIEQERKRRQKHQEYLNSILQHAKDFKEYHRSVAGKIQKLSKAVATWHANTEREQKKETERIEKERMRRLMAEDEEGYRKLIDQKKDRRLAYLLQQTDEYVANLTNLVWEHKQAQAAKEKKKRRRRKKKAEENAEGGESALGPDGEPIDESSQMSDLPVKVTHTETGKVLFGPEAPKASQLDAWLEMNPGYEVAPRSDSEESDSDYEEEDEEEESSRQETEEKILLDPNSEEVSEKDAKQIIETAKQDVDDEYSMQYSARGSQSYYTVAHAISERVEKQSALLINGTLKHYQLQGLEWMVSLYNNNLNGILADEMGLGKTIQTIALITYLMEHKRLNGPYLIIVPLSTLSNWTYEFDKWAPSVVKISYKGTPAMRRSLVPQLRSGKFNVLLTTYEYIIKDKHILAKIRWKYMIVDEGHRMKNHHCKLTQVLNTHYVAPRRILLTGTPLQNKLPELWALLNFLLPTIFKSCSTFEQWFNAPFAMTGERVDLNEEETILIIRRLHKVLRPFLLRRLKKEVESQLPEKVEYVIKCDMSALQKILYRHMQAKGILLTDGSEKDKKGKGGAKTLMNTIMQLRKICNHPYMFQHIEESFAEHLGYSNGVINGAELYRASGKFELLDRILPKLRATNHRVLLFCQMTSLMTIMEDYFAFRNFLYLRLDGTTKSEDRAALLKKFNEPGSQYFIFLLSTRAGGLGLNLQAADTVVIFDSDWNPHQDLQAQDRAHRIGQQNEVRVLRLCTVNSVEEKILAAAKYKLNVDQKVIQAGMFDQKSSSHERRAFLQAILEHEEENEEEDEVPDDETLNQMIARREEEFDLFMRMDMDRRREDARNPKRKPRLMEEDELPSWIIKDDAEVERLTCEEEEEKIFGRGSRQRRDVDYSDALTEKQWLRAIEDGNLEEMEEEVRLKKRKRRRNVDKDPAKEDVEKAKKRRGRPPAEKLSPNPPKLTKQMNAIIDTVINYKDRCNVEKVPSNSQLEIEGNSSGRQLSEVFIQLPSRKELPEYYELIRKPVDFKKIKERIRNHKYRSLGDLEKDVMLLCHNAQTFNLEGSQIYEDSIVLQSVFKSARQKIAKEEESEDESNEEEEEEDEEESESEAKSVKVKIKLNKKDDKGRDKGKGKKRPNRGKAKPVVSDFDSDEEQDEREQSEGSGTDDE
# [7] = Counterscreen for activators of the function of SWI/SNF related, matrix associated, actin dependent regulator of chromatin, subfamily a, member 2 (SMARCA2, BRM): Luminescence-based cell-based high throughput dose response assay to identify non-selective compounds using the VP16 reporter assay.; type: functional
# [8] = target: T3, Fructose-bisphosphate aldolase (Mycobacterium tuberculosis, UniProt P9WQA3); experiment: Fluorescence-based biochemical high throughput dose response assay for inhibitors of the fructose-bisphosphate aldolase (FBA) of M. tuberculosis.; type: functional
# T3 sequence (P9WQA3 whole entry): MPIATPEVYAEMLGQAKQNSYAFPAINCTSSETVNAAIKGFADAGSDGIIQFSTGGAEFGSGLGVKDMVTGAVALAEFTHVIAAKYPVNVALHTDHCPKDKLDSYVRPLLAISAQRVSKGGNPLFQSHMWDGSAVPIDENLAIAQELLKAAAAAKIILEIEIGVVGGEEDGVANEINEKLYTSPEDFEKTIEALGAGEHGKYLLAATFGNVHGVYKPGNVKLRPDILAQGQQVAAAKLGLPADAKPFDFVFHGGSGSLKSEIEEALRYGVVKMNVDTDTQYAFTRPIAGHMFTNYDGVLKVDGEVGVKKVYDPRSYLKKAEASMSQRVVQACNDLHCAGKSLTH
# [9] = inhibitors of firefly luciferase expression or activity, dose response, H4 neuroglioma cells, luminescence (AID 1990); type: functional, cell-based
# HEK293 [10] = experiment: NOD1 signaling inhibitors, primary screen, cell-based, luminescence, uHTS (AID 1578); type: functional; details: Homo sapiens
# HEK293 [11] = experiment: cells; type: functional, cell-based; details: Homo sapiens
# [12] = Luminescence Cell-Based Dose Response HTS to Identify Inhibitors of 5'UTR Stem-Loop Driven Prion Protein mRNA Translation in H4 Neuroglioblastoma Cells. [Related pubchem assays: 1827 (Project Summary), 1813 (Primary HTS)]; type: functional
# [13] = inhibitors of SNCA 5'UTR-driven reporter translation, confirmation, H4 neuroglioma cells, luminescence (AID 1988); type: functional, cell-based
# HEK293 [14] = experiment: cells; type: functional, cell-based; details: Homo sapiens; remark: listed apart in the source
# [15] = target: Nucleotide-binding oligomerization domain-containing protein 2 (Homo sapiens, UniProt Q9HC29); experiment: NOD2 signaling inhibitors, cell-based, luminescence, uHTS, HEK293 (AID 1566); type: functional
# Sequence of Nucleotide-binding oligomerization domain-containing protein 2 (Q9HC29 whole entry, the tested form may be a part): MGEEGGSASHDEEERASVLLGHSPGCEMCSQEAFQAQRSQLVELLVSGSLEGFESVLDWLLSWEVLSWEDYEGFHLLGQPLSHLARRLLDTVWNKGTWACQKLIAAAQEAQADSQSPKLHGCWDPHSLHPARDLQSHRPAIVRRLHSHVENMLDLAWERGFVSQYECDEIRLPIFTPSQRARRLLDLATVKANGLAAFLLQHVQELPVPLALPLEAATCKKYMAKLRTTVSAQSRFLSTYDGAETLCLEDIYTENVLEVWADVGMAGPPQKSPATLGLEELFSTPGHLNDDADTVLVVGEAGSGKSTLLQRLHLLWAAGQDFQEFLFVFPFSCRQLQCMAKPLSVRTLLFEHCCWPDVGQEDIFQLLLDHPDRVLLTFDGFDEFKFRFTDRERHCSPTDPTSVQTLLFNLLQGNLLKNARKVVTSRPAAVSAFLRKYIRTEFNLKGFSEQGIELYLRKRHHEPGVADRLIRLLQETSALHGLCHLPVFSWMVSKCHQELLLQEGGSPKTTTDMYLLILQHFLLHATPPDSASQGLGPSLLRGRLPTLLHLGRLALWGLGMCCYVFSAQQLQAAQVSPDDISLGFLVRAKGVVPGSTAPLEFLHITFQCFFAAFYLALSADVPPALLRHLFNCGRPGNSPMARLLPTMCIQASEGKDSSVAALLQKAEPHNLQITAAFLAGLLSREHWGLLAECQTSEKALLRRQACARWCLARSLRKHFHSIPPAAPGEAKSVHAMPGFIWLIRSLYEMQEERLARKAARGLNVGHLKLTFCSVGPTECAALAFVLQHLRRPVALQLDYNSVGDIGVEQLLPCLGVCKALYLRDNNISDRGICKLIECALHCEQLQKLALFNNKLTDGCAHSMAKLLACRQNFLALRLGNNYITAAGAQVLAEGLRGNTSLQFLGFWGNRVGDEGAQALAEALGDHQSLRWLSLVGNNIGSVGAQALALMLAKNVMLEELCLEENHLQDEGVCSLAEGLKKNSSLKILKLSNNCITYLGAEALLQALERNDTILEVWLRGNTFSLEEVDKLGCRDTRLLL
# HEK293 [16] = experiment: NOD2 signaling inhibitors in MDP-stimulated cells, cell-based, uHTS, luminescence (AID 2001); type: functional; details: Homo sapiens
# HEK293 [17] = experiment: cells; type: functional, cell-based; details: Homo sapiens; remark: listed apart in the source
# [18] = target: DNA dC->dU-editing enzyme APOBEC-3A (Homo sapiens, UniProt P31941); experiment: Dose Response confirmation of small molecule APOBEC3A DNA Deaminase Inhibitors via a fluorescence-based single-stranded DNA deaminase assay. [Related pubchem assays (depositor defined):AID493011, AID493024]; type: functional
# Sequence of DNA dC->dU-editing enzyme APOBEC-3A (P31941 whole entry): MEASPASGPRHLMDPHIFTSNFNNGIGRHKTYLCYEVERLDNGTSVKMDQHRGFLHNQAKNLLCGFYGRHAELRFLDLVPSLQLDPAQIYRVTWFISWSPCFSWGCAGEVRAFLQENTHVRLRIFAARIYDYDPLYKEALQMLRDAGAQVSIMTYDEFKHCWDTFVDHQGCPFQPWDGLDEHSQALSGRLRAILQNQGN
# [19] = target: DNA dC->dU-editing enzyme APOBEC-3G (Homo sapiens, UniProt Q9HC16); type: functional;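 note: Dose-response counterscreen measuring inhibition of APOBEC3G DNA deaminase activity, run while confirming APOBEC3A inhibitors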
# Sequence of DNA dC->dU-editing enzyme APOBEC-3G (Q9HC16 whole entry): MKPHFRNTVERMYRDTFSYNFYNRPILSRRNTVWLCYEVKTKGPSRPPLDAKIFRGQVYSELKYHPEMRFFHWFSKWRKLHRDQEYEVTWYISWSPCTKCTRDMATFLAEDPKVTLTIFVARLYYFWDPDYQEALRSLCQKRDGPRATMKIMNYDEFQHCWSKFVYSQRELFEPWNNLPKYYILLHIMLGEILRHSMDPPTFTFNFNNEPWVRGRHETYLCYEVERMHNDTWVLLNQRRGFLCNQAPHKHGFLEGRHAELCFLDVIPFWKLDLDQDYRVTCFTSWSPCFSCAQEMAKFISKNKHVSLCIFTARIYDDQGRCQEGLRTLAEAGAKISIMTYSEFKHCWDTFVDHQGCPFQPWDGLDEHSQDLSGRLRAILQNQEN
# T1 sequence (P09923 whole entry): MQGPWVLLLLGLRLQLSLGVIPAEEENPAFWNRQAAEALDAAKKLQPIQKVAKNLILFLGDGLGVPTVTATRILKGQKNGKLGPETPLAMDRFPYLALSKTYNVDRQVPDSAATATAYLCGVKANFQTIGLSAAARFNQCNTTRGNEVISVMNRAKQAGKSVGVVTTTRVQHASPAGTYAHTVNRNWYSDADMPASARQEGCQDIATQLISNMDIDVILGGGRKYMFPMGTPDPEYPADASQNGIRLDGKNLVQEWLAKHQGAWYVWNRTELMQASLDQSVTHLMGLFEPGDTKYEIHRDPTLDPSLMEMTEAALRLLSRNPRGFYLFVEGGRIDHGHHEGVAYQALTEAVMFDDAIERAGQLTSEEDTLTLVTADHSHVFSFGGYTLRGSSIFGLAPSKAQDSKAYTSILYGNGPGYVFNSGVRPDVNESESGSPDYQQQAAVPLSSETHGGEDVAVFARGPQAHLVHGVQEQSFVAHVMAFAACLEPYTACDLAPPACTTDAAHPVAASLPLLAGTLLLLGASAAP
# Sequence of Intestinal-type alkaline phosphatase (Mus musculus, UniProt P24822) (P24822 whole entry): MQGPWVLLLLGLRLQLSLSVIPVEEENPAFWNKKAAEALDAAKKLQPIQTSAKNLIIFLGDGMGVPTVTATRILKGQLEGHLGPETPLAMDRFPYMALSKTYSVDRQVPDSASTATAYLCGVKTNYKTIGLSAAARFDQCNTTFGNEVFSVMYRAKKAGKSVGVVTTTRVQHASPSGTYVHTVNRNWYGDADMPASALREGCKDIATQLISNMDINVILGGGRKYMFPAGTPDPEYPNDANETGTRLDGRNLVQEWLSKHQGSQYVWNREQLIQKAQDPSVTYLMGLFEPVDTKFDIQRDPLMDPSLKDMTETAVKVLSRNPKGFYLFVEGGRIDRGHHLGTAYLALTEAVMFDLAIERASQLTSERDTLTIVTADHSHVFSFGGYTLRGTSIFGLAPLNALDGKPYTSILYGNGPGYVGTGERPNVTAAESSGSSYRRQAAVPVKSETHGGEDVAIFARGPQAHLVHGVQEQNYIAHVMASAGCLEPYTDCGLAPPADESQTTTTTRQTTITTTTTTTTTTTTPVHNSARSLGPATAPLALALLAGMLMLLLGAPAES
compound,measurement,setting,value
Cc1cc(C(=O)NC2CC(C)(C)Cc3c2cnn3-c2ccccc2)[nH]n1 (centres undefined),EC50,[1],55.1 µM (active)
same,EC50,[2],70.7 µM (active)
same,EC50,[3],45.5 µM (active)
same,EC50,[4],48.2 µM (active)
Cc1cccn2c(=O)c3cc(C(=O)NC4CCCC4)c(=N)n(C4CCCCC4)c3nc12,IC50,[5],> 100 µM (inactive)
same,EC50,[6],> 91.2 µM (inactive)
same,EC50,[7],> 91.2 µM (inactive)
same,IC50,[8],0.469 µM (active)
CCCCCCCn1ccc(=N)cc1,EC50,[9],13 µM (active)
same,EC50,HEK293 [10],6.12 µM (active)
same,IC50,HEK293 [11],5.72 µM (active)
same,EC50,[12],> 120 µM (not active)
same,EC50,[13],14.8 µM (active)
same,IC50,HEK293 [14],18.1 µM (active)
same,EC50,[15],8.15 µM (active)
same,IC50,HEK293 [16],6.34 µM (active)
same,IC50,HEK293 [17],> 20 µM (inactive)
same,IC50,[18],1.83 µM (active)
same,IC50,[19],2.51 µM (active)

# — ChEMBL document CHEMBL1201862, “PubChem BioAssay data set” (2004)
